Data reported in patent US20220315908A1, “NOVEL GARDNERELLA ENDOLYSINS AND USES THEREOF” (priority 2019, published 2022).
Converted amounts (≈) assume the structure as drawn.

Tests used:
Assay in all cases: MIC and MBC microbroth dilution
[1] = test system: G. vaginalis (Gv_9); type: cell-based, Gardnerella vaginalis; conditions: for MIC / MBC: Gardnerella vaginalis; for MIC: 48 h
Description: (§1) One of the main deficiencies in the treatment of BV is the high rate of recurrence in many women, which leads to repeated administration of antibiotics and concomitant destabilization of the microbiome and other side effects. The minimal inhibitory concentration (MIC) and minimal bactericidal concentration (MBC) on Gardnerella cells of the strains also used for the endolysin activity assays were then measured using the method described in Reference Example 6 and 7. […] Essentially, Gardnerella suspensions at 2.5×10^7 CFU/ml were incubated with the concentration of antibiotics as indicated and incubated for 48 h at 37° C. under anaerobic conditions. […] OD(610) was measured at the beginning and the end of the experiment. At the end of the experiment, 2 ul of each reaction mix was spotted on agar to determine the MBC.
(§2) The conditions under which MIC and MBC were measured are more rigorous than the standard.
(§3) Example 7—Activity assays of a representative (H2B10) of domain swapped endolysins on the growth in suspension of different Gardnerella strains. […] The conditions under which MBC was measured are more rigorous than the standard. […] In general, it is known, that antibiotics only insufficiently eradicate the Gardnerella biofilm, a hallmark of BV, which is one suspected reason for the reported very high recurrence rate of BV. Despite leaving residual viable biofilm, antibiotics wipe parts of the beneficial organisms of the vaginal microbiome which then opens an ecological niche for other pathogens, e.g. fungi.
(§4) Bacteria were plated from cryo stock on BD Choc Agar plates (Gardnerella) and incubated at 37° C. for 48 h under anaerobic conditions. Colonies were scraped from the plate, resuspended in Hardy Broth or NYC-III-HS-pH 5.0, and the suspension adjusted to OD (610 or 620 nm as indicated) 0.05. It has to be noted that two Tecan Microplate readers, having respectively a 610 nm or 620 nm filter, have been used interchangeably in the experiments. Although it doesn't make any difference for the experiments, the exact wavelength used is specified in each example. Antibiotics were prepared as 20× stocks for each of the required final concentrations. 95 μl of cell suspension was mixed with 5 μl antibiotics dilution in a 384-well plate. OD (610-620 as indicated) at the start of the reaction was measured, then the plate was incubated at 37° C. for 48 h under anaerobic conditions. After that, the OD (610-620 as indicated) was measured again for MIC determination, where MIC was defined as the lowest concentration of antibiotic where the OD (610-620 as indicated) was not above the level measured at the beginning of the experiment. After measuring OD, 2 μl of each well were spotted on a NYC-III+HS Agar plate. The plates were then incubated for further 48 h at 37° C. under anaerobic conditions. After incubation, cell growth on each spot was evaluated, and the MBC defined as the lowest concentration of antibiotics where no bacteria grew on the plate. The experiments were conducted in triplicate for each condition. In the second round of MIC and MBC experiments with antibiotics the Gardnerella cell suspension was adjusted to the McFarland standard 0.5 (approximately OD (610) 0.07) and then diluted 1:75 according to the CLSI (Clinical and Laboratory Standards Institute) standards. Antibiotics were prepared according to the CLSI standards and 50 μl of cell suspension was mixed in a 96-well plate with 50 μl antibiotics. Otherwise the MIC and MBC was determined as described above.

[2] = test system: G. leopoldii (Gv_11); type: cell-based, Gardnerella leopoldii; conditions: for MIC / MBC: Gardnerella leopoldii; for MIC: 48 h
Description: as §1, §2, §3, §4

[3] = test system: G. piotii (Gv_17); type: cell-based, Gardnerella piotii; conditions: for MIC / MBC: Gardnerella piotii; for MIC: 48 h
Description: as §1, §2
as §4, with “above. For the MIC and MBC determination of the domain swapped endolysin H2B10 50 μl of Gardnerella cell suspension was mixed in a 96-well plate with 50 μl of H2B10 containing solution, which where serially diluted 1:1. OD610 at the start of the reaction was measured, then the plate was incubated at 37° C. for 48 h under anaerobic conditions. After that, the OD(610) was measured again for MIC determination, where MIC was defined as the lowest concentration of H2B10 where the OD was not or only slightly above the level measured at the beginning of the experiment.” for “above.”

[4] = first round: […]10^7 CFU/ml, Hardy broth, 384-well, 48 h 37° C. anaerobic
[5] = second round: 1×10^5-1×10^6 CFU/ml (CLSI), NYC-III broth, 96-well, 48 h anaerobic
[6] = first round: […]10^7 CFU/ml, minimal concentration fully eradicating the suspension
[7] = second round: 1×10^5-1×10^6 CFU/ml (CLSI), NYC-III broth, 96-well

Cc1ncc([N+](=O)[O-])n1CCO [Metronidazole]
MIC [1, 4]: 128 µg/mL (≈ 748 µM) | MIC [1, 5]: 8 µg/mL (≈ 46.7 µM) | MBC [1, 6]: > 128 µg/mL | MBC [1, 7]: 16 µg/mL (≈ 93.5 µM) | resistance class of MIC, Metronidazole ([1]; first round): R (>=32 μg/mi for Metronidazole) | resistance class given with MBC, Metronidazole ([1]; second round): R (>=32 μg/mi for Metronidazole) | MIC [2, 4]: > 128 µg/mL | MIC [2, 5]: 128 µg/mL (≈ 748 µM) | MBC [2, 7]: > 128 µg/mL | MBC ([2]; first round: 2.5×10^7 CFU/ml, minimal concentration fully eradicating the suspension): > 128 µg/mL | resistance class of MIC, Metronidazole ([2]; first round): R (>=32 μg/mi for Metronidazole) | resistance class given with MBC, Metronidazole ([2]; second round): R (>=32 μg/mi for Metronidazole) | resistance class printed with MIC, Metronidazole ([2]; second round): R (>=32 μg/mi for Metronidazole) | MIC [3, 4]: 64 µg/mL (≈ 374 µM) | MIC [3, 5]: 16 µg/mL (≈ 93.5 µM) | MBC [3, 6]: > 128 µg/mL | MBC [3, 7]: 64 µg/mL (≈ 374 µM) | resistance class of MIC, Metronidazole ([3]; first round): R (>=32 μg/mi for Metronidazole) | resistance class given with MBC, Metronidazole ([3]; second round): R (>=32 μg/mi for Metronidazole)
